How the values were obtained:
Type in all cases: cell-based
[1] = test system: Pseudomonas aeruginosa (PA); assay: MIC determination; conditions: Pseudomonas aeruginosa, 18 h, read-out: Minimum Inhibitory Concentrations, PA
Experimental: (§1) Sterile technique was used throughout these experiments. Suspensions of organisms were removed from storage (−80° C.) and partially thawed. Partially thawed organisms (1 μL) were inoculated into 3 mL sterile LB Broth in a sterile culture tube and capped, then cultured at 37° C. with shaking for 4-5 hours until the optical density at 600 nm (OD600) was greater than 0.1 on a single beam spectrophotometer.
(§2) The concentration of organisms was adjusted to 0.08-0.1 OD600 (0.5 McFarland units) by dilution with sterile cation-adjusted Meuller-Hinton (CAMH) broth. The suspensions were used within 30 minutes of preparation.
(§3) A stock solution was made of each test compound by measuring 6.4 mg of the compound on an analytical balance and dissolving it in DMSO (1 mL) to get a transparent solution. The solutions were stored at −20° C. and thawed prior to use.
(§4) Sterile CAMH broth (200 μL) containing 20 μM Apo-Transferrin was pipetted into the first row of 8 columns of a sterile, round-bottomed, transparent, 96-well microplate using an 8-channel pipette equipped with sterile tips. One hundred μL was pipetted into the wells of the remaining 11 rows.
(§5) With an 8-channel pipette equipped with sterile tips, 100 μL of the first row solution was transferred to the second row and mixed. The process was repeated for the second to third rows and continued through row 11. One hundred μL from row 11 was removed and discarded so that all 12 rows contained 100 μL. Row 12 contained no compound and rows 1-11 contained 64, 32, 16, 8, 4, 2, 1, 0.5, 0.25, 0.125, […] of a given compound.
(§6) Inoculant suspensions (0.5 μL) were added to the 12 wells of each column. The plates were then covered and incubated at 37° C. overnight for 18 hours.
(§7) For each organism the MIC was determined by identifying the transparent well with the lowest test compound concentration.

[2] = test system: Pseudomonas aeruginosa PA (RR-1); assay: MIC determination; conditions: Pseudomonas aeruginosa, 18 h, read-out: Minimum Inhibitory Concentrations, PA (RR-1)
Experimental: as §1, §2, §3, §4, §5, §6, §7

[3] = test system: Pseudomonas aeruginosa PA (RR-2); assay: MIC determination; conditions: Pseudomonas aeruginosa, 18 h, read-out: Minimum Inhibitory Concentrations, PA (RR-2)
Experimental: as §1, §2, §3, §4, §5, §6, §7

[4] = test system: Pseudomonas aeruginosa PA (URMC-2); assay: MIC determination; conditions: Pseudomonas aeruginosa, 18 h, read-out: Minimum Inhibitory Concentrations, PA (URMC-2)
Experimental: as §1, §2, §3, §4, §5, §6, §7

[5] = test system: Pseudomonas aeruginosa PA (URMC-3); assay: MIC determination; conditions: Pseudomonas aeruginosa, 18 h, read-out: Minimum Inhibitory Concentrations, PA (URMC-3)
Experimental: as §1, §2, §3, §4, §5, §6, §7

[6] = test system: Pseudomonas aeruginosa PA-RR-(980151052); assay: MIC determination; conditions: Pseudomonas aeruginosa, 18 h, read-out: Minimum Inhibitory Concentrations, PA-RR-(980151052)
Experimental: as §1, §2, §3, §4, §5, §6, §7

[7] = test system: Pseudomonas aeruginosa PA-RR-(98023895); assay: MIC determination; conditions: Pseudomonas aeruginosa, 18 h, read-out: Minimum Inhibitory Concentrations, PA-RR-(98023895)
Experimental: as §1, §2, §3, §4, §5, §6, §7

[8] = test system: Pseudomonas aeruginosa PA-RR-(G7294437); assay: MIC determination; conditions: Pseudomonas aeruginosa, 18 h, read-out: Minimum Inhibitory Concentrations, PA-RR-(G7294437)
Experimental: as §1, §2, §3, §4, §5, §6, §7

[9] = test system: Pseudomonas aeruginosa PA-RR-(G7304100); assay: MIC determination; conditions: Pseudomonas aeruginosa, 18 h, read-out: Minimum Inhibitory Concentrations, PA-RR-(G7304100)
Experimental: as §1, §2, §3, §4, §5, §6, §7

[10] = test system: Pseudomonas aeruginosa PA-RR-(G7305586); assay: MIC determination; conditions: Pseudomonas aeruginosa, 18 h, read-out: Minimum Inhibitory Concentrations, PA-RR-(G7305586)
Experimental: as §1, §2, §3, §4, §5, §6, §7

[11] = test system: Pseudomonas aeruginosa PA-RR-(G8062859); assay: MIC determination; conditions: Pseudomonas aeruginosa, 18 h, read-out: Minimum Inhibitory Concentrations, PA-RR-(G8062859)
Experimental: as §1, §2, §3, §4, §5, §6, §7

[12] = test system: Pseudomonas aeruginosa PA-RR-(purple Fre D); assay: MIC determination; conditions: Pseudomonas aeruginosa, CAMH broth, 20 μM Apo-Transferrin, 37° C., 18 hours, read-out: Minimum Inhibitory Concentrations, PA-RR-(purple Fre D)
Experimental: as §1, §2, §3, §4, §5, §6, §7

E. coli J53 Alone = assay: MIC determination, isogenic E. coli strains
Experimental: as §1, §2, §3, §4, §5, §6, §7
(§8) The gene sequence for each beta-lactamase enzyme was synthesized and inserted into the pBC-SK(+) plasmid by GenScript, a commercial service. E. coli J53 was transformed with each plasmid via electroporation and resistant transformants were selected on agar plates containing 50 micrograms/mL ampicillin. The selected transformants were stored at −80 degrees C. in 20% glycerol.

[13] = test system: Isogenic E. coli J58 strain carrying DHA-1; assay: MIC determination, isogenic E. coli strains; conditions: Escherichia coli, 18 h, read-out: Mimimum Inhibitory Concentrations, DHA-1
Experimental: as §1, §2, §3, §4, §5, §6, §7, §8

[14] = test system: Isogenic E. coli J58 strain carrying TEM-26; assay: MIC determination, isogenic E. coli strains; conditions: Escherichia coli, 18 h, read-out: Mimimum Inhibitory Concentrations, TEM-26
Experimental: as §1, §2, §3, §4, §5, §6, §7
TEM-26 (Group 2be beta-lactamase, hydrolyzes extended spectrum cephalosporins and monobactams), [25];
as §8

[15] = test system: Isogenic E. coli J58 strain carrying SHV-1; assay: MIC determination, isogenic E. coli strains; conditions: Escherichia coli, 18 h, read-out: Mimimum Inhibitory Concentrations, SHV-1
Experimental: as §1, §2, §3, §4, §5, §6, §7
SHV-1 (Class A, Group 2b beta-lactamase, hydrolyzes penicillins and early cephalosporins);
as §8

[16] = test system: Isogenic E. coli J58 strain carrying CTX-M-14; assay: MIC determination, isogenic E. coli strains; conditions: Escherichia coli, 18 h, read-out: Mimimum Inhibitory Concentrations, CTX-M-14
Experimental: as §1, §2, §3, §4, §5, §6, §7
(§9) CTX-M-14 and CTX-M-15 (Class A, Group 2be beta-lactamases, hydrolyzes extended spectrum cephalosporins and monobactams);
as §8

[17] = test system: Isogenic E. coli J58 strain carrying CTX-M-15; assay: MIC determination, isogenic E. coli strains; conditions: Escherichia coli, 18 h, read-out: Mimimum Inhibitory Concentrations, CTX-M-15
Experimental: as §1, §2, §3, §4, §5, §6, §7, §9, §8

[18] = test system: Isogenic E. coli J58 strain carrying KPC-2; assay: MIC determination, isogenic E. coli strains; conditions: Escherichia coli, 18 h, read-out: Mimimum Inhibitory Concentrations, KPC-2
Experimental: as §1, §2, §3, §4, §5, §6, §7
(§10) KPC-2 and KPC-3 (Class A, Group 2f, carbapenemases);
as §8

[19] = test system: Isogenic E. coli J58 strain carrying KPC-3; assay: MIC determination, isogenic E. coli strains; conditions: Escherichia coli, 18 h, read-out: Mimimum Inhibitory Concentrations, KPC-3
Experimental: as §1, §2, §3, §4, §5, §6, §7, §10, §8

[20] = test system: Isogenic E. coli J58 strain carrying NDM-1; assay: MIC determination, isogenic E. coli strains; conditions: Escherichia coli, 18 h, read-out: Mimimum Inhibitory Concentrations, NDM-1
Experimental: as §1, §2, §3, §4, §5, §6, §7
NDM-1 (Group 3a carbapenemase, broad spectrum divalent Zn^++ metallo-Beta-Lactamase);
as §8

[21] = test system: Isogenic E. coli J58 strain carrying VIM-2; assay: MIC determination, isogenic E. coli strains; conditions: Escherichia coli, 18 h, read-out: Mimimum Inhibitory Concentrations, VIM-2
Experimental: as §1, §2, §3, §4, §5, §6, §7
VIM-2 (Group 3a carbapenemase, metallo-beta-lactamase); and
as §8

[22] = test system: Isogenic E. coli J58 strain carrying IMP-1; assay: MIC determination, isogenic E. coli strains; conditions: Escherichia coli, 18 h, read-out: Mimimum Inhibitory Concentrations, IMP-1
Experimental: as §1, §2, §3, §4, §5, §6, §7
IMP-1 (Group 3a carbapenemase, metallo-beta-Lactamase).
as §8

CC[N+]1(Cc2ccc(C=CC3=C(C(=O)O)N4C(=O)[C@@H](NC(=O)/C(=N\OC(C)(C)C(=O)O)c5csc(N)n5)[C@H]4SC3)cc2)CCc2cc(O)c(O)cc2C1 (mixture of isomers) [Compound 423, 2-(4-((E/Z)-2-((6R,7R)-7-((Z)-2-(2-aminothiazol-4-yl)-2-(((2-carboxypropan-2-yl)oxy)imino)acetamido)-2-carboxy-8-oxo-5-thia-1-azabicyclo[4.2.0]oct-2-en-3-yl)vinyl)benzyl)-2-ethyl-6,7-dihydroxy-1,2,3,4-tetrahydroisoquinolin-2-ium]
MIC [1]: 2 µg/mL | MIC [2]: 2 µg/mL | MIC [3]: 2 µg/mL | MIC [4]: 2 µg/mL | MIC [5]: ≤ 0.06 µg/mL | MIC [6]: 2 µg/mL | MIC [7]: 8 µg/mL | MIC [8]: 0.5 µg/mL | MIC [9]: ≤ 0.06 µg/mL | MIC [10]: 8 µg/mL | MIC [11]: 2 µg/mL | MIC [12]: 1 µg/mL | MIC (E. coli J53 Alone; Escherichia coli, J53ALONE, 18 h, read-out: Mimimum Inhibitory Concentrations, J53 Alone): 0.25 µg/mL | Mimimum Inhibitory Concentrations, J53 Alone (E. coli J53 Alone; J53 Alone, Table 4-2, CAMH broth, 20 μM Apo-Transferrin, 37° C., 18 hours): 0.25 microgram/mL | MIC [13]: 1 µg/mL | MIC [14]: 2 µg/mL | MIC [15]: 2 µg/mL | MIC [16]: 2 µg/mL | MIC [17]: 2 µg/mL | MIC [18]: 8 µg/mL | MIC [19]: 4 µg/mL | MIC [20]: > 64 µg/mL | MIC [21]: 0.5 µg/mL | MIC [22]: 32 µg/mL

Reference: patent US20190100534A1, “Cephem Compounds with Latent Reactive Groups” (Gladius Pharmaceuticals, Inc., priority 2017, published 2019)
